{"source": "paper PMC9088825", "about": "“N ^α-arylsulfonyl histamines as selective β-glucosidase inhibitors” (RSC Advances, 2018)", "key": {"[1]": {"test_system": "β-Glc (from almonds)", "experiment": "β-Glc microplate assay (hydrolysis of p-nitrophenyl-β-D-glucopyranoside)", "type": "biochemical", "conditions": "for IC50: microplate assay, β-PNPG substrate, pH 7, 37 °C, read-out: IC50 (β-Glc inhibition)", "procedure": "The final volume in well was 270 μL. The enzymatic reaction was initiated by addition of β-PNPG (1.63 mM end concentration in well). […] For IC50 determination, ten serial dilutions of the compounds were prepared in DMSO, following equally spaced points in […] logarithm scale, starting at 16.2 mM and finishing at 1.7 μM. IC50 was calculated using Prism V5.01 (GraphPad Software Inc., La Jolla, CA, USA) requesting the software a non-linear regression curve fit for a log[Inhibitor] vs. normalized answer model with variable slope."}, "[2]": {"test_system": "β-Glc (from almonds)", "conditions": "cited from earlier work"}, "[3]": {"molecular_target": "β-Glc", "conditions": "cited from earlier work"}, "[4]": {"test_system": "β-Glc", "experiment": "Kinetic experiments (Lineweaver–Burk, Ki)", "type": "biochemical, almonds", "procedure": "Microplate assay was carried on varying substrate concentration between 0.022 and 7.2 mM; as well as the inhibitor concentration was varied between 0.239 and 0.0061 mM. Initial velocities vs. [S] curves were obtained with Michaelis–Menten equation adjustment. After that, Lineweaver–Burk linearization plot and the secondary linearization of Slopes vs. [I] reveled type of inhibition and Ki value respectively. All the data acquired was treated through Prism V5.01 (GraphPad Software Inc.)."}, "[5]": {"molecular_target": "xanthine oxidase (XO) (Bos taurus, UniProt P80457)", "sequence (P80457 whole entry)": "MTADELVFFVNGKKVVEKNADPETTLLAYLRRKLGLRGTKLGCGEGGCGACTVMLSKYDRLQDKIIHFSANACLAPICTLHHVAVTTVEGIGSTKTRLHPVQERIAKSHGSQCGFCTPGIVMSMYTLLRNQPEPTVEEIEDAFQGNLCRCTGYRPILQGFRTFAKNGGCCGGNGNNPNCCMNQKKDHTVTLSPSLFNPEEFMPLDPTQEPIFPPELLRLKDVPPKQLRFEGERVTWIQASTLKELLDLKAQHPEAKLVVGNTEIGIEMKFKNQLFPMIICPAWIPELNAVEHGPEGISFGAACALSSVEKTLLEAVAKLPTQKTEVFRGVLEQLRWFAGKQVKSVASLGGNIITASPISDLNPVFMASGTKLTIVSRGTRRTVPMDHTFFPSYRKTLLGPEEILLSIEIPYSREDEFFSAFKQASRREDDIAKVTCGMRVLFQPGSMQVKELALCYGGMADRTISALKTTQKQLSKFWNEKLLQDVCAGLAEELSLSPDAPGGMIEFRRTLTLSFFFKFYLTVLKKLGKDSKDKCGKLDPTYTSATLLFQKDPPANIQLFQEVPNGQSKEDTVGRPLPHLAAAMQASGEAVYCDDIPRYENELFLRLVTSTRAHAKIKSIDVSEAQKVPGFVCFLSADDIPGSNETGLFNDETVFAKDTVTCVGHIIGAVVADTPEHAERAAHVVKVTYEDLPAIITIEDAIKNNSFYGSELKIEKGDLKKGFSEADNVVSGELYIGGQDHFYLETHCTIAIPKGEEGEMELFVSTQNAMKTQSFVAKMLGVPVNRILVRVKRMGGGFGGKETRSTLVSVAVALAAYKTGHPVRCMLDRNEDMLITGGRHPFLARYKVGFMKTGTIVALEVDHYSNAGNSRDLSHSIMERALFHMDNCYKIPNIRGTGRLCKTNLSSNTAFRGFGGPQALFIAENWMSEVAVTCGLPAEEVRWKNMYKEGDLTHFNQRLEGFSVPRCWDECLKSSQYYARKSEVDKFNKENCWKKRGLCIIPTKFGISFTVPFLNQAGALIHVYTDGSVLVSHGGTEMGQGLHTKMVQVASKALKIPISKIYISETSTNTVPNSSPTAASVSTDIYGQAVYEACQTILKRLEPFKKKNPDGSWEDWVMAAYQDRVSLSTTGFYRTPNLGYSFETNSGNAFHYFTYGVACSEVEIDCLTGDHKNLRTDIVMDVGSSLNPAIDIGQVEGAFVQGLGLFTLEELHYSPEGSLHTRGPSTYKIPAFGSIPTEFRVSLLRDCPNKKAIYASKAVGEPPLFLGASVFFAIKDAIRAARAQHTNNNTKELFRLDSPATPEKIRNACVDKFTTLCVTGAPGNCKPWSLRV", "experiment": "XO microplate assay (uric acid formation)", "type": "biochemical, bovine", "conditions": "tested at 3 μM", "procedure": "Following the method previously reported by Chu,[45] the formation of uric acid was continuously measured in 96-well microplate. Each well was filled in triplicates with: of 10 μL test compound in DMSO (0.11 μM end concentration in well) and XO (bovine) in 0.2 M buffer phosphate, pH 7.5 (2.81 μU mL^−1, end concentration in well). […] The final volume in well was 270 μL. The enzymatic reaction was initiated by addition of the xanthine substrate (0.04 mM, end concentration in well). The plate was shaken for 2 s and the increase in absorbance at 295 nm was monitored at 30 °C for 20 min."}, "[6]": {"molecular_target": "T1, β-galactosidase (β-Gal) (Kluyveromyces lactis, UniProt P00723)", "T1 sequence (P00723 whole entry)": "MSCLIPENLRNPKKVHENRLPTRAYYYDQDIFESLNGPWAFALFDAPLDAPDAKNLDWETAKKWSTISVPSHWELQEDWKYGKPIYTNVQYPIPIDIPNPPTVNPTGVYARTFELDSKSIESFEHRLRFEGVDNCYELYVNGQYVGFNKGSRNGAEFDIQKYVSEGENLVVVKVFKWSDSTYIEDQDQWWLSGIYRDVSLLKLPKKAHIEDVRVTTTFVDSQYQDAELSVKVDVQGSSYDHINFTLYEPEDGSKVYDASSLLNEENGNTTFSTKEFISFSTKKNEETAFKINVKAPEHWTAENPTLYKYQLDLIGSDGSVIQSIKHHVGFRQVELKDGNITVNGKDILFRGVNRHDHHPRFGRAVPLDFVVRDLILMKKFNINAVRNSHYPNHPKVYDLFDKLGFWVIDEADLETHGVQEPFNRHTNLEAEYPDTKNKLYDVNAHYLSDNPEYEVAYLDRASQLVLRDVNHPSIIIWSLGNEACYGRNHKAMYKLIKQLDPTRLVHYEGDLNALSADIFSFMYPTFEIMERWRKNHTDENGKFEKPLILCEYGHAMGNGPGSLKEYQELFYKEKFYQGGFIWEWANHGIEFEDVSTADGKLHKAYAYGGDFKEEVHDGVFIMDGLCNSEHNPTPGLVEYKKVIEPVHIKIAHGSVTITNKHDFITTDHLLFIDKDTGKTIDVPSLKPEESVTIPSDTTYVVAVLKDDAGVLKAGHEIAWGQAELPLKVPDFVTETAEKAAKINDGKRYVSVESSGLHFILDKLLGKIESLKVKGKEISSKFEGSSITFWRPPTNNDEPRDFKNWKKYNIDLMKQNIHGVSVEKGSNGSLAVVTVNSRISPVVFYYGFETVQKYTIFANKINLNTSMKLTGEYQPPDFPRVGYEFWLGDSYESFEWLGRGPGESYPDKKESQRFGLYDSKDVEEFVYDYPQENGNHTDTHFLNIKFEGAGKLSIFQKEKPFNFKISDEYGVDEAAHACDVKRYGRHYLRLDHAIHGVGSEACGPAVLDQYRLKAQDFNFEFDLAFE", "experiment": "β-Gal microplate assay", "type": "biochemical", "conditions": "up to 3.500 mM", "procedure": "Similar to the method applied in β-Glc assay, the hydrolysis of o-nitrophenyl-β-O-D-galactopyranoside (β-ONPG) was continuously measured in 96-well microplate. Wells were filled in triplicate with β-Gal (Kluyveromyces lactis) in 50 mM buffer phosphate, pH 7 (7.20 μU mL^−1 final concentration in well) and 10 μL of test compound in dimethylsulfoxide (DMSO) solution (100 μM or 500 μM end concentration in well). The final volume in well was 270 μL. The enzymatic reaction was initiated by addition of β-ONPG (3.23 mM end concentration in well). The plate was shaken for 2 s and the increase in absorbance at 405 nm was monitored at 37 °C for 10 min. For IC50 determination, eighteen serial dilutions of the compounds were prepared in DMSO, following equally spaced points in neperian logarithm scale, starting at 94.50 mM and finishing at 1.44 μM. IC50 was calculated using Prism V5.01 (GraphPad Software Inc., La Jolla, CA, USA) requesting the software a non-linear regression curve fit for a log[Inhibitor] vs. normalized answer model with variable slope."}, "[7]": {"test_system": "β-Glc", "experiment": "Jump dilution assay", "type": "biochemical, almonds", "procedure": "After 30 minutes of incubation, the mixture was diluted 100-fold and mixed with the substrate and α-CD to start the reaction. The progress curve of this sample was measured and compared to a sample of enzyme incubated and diluted in the absence of inhibitor. Each incubation and dilution were prepared and measured in triplicate. The percentage of activity recovery was obtained using Prism V5.01 (GraphPad Software Inc.)."}, "[8]": {"molecular_target": "acetyl cholinesterase (AChE) (Electrophorus electricus, UniProt O42275)", "sequence (O42275 24-633)": "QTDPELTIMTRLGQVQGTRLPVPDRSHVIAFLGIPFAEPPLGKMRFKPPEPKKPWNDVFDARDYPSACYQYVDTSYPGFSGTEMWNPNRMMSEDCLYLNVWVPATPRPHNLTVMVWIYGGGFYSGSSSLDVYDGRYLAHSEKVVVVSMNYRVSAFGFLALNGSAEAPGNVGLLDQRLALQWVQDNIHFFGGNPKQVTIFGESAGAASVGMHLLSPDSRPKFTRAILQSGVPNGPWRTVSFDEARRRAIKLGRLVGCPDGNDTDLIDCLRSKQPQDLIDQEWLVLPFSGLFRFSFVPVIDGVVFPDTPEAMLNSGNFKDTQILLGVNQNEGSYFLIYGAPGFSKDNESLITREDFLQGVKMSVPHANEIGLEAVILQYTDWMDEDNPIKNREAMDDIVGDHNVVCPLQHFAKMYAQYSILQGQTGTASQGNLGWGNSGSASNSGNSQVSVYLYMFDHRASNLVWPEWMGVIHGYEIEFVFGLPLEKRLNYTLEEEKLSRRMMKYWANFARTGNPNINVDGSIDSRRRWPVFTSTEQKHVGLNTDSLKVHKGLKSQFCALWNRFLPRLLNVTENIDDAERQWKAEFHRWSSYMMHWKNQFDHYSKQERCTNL", "type": "biochemical, electric eel", "conditions": "tested at 1.5 μM", "procedure": "AChE activity measurement was carried on based on Ellman's method.[46] […] The plate was shaken for 2 s and the increase in absorbance at 405 nm was monitored at 37 °C for 15 min."}, "[9]": {"molecular_target": "T1, β-galactosidase (β-Gal)", "design": "method as in earlier work", "conditions": "ref 1 (Kato et al., J. Med. Chem., 2005, 48, 2036-2044); read-out: IC50 (β-Gal), reference inhibitor; cited from earlier work"}, "[10]": {"conditions": "binds the active site of β-Glc from almonds, read-out: Ki (β-Glc from almonds)"}}, "note": "Where two headings read alike, the source gives them in different places."}
{"compound": "OC[C@H]1NC[C@H](O)[C@@H](O)[C@@H]1O", "note": "[1-DNJ, 1-deoxynojirimycin, reference compound]", "values": [{"measurement": "IC50", "setting": "[1]", "result": "65.2 ± 1.04", "unit": "µM"}, {"measurement": "IC50", "setting": "[2]; read-out: IC50 (β-Glc inhibition), reported value for reference inhibitor", "result": 81, "unit": "µM"}, {"measurement": "Ki", "setting": "[3]; measured in similar conditions, read-out: Ki (β-Glc), reference compound", "result": 47, "unit": "µM"}]}
{"compound": "O=S(=O)(NCCc1c[nH]cn1)c1ccccc1", "note": "[I-a, N ^α-benzenesulfonyl histamine]", "values": [{"measurement": "IC50", "setting": "[1]", "result": 197, "unit": "µM"}]}
{"compound": "Cc1ccc(S(=O)(=O)NCCc2c[nH]cn2)cc1", "note": "[I-b, N ^α-p-toluenesulfonyl histamine]", "values": [{"measurement": "IC50", "setting": "[1]", "result": "250 ± 1.03", "unit": "µM"}]}
{"compound": "O=S(=O)(NCCc1c[nH]cn1)c1ccc(F)cc1", "note": "[I-c, N ^α-4-fluorobenzenesulfonyl histamine]", "values": [{"measurement": "IC50", "setting": "[1]", "result": "65.1 ± 1.04", "unit": "µM"}, {"measurement": "% inhibition of β-Glc at 65 μM", "setting": "[1]; tested at 65 μM", "result": 49.94, "unit": "%"}, {"measurement": "Type of inhibition (Lineweaver–Burk plot)", "setting": "[4]; different concentrations of p-NPG and inhibitor", "result": "competitive"}, {"measurement": "Ki", "setting": "[4]; kinetic assays, p-NPG substrate", "result": 8.11, "unit": "µM"}, {"measurement": "inhibition at 3 µM", "setting": "[5]", "result": 1.31, "unit": "%"}, {"measurement": "Inhibition of β-Gal", "setting": "[6]", "result": "no inhibition"}, {"measurement": "Enzyme activity recovery (jump dilution)", "setting": "[7]; incubated at 10-fold IC50, 30 min, diluted 100-fold", "result": 91, "unit": "%"}, {"measurement": "Enzyme–inhibitor interaction (reversibility)", "setting": "[7]; jump dilution", "result": "reversible"}, {"measurement": "Inhibition of AChE", "setting": "[8]", "result": "no inhibition"}]}
{"compound": "O=S(=O)(NCCc1c[nH]cn1)c1ccc(C(F)(F)F)cc1", "note": "[I-d, N ^α-4-(trifluoromethyl)benzenesulfonyl histamine]", "values": [{"measurement": "IC50", "setting": "[1]", "result": "79.5 ± 1.05", "unit": "µM"}]}
{"compound": "Cc1ccc(F)c(S(=O)(=O)NCCc2c[nH]cn2)c1", "note": "[I-e, N ^α-2-fluor-5-methylbenzenesulfonyl histamine]", "values": [{"measurement": "% of inhibition of β-Glc at 40 μM", "setting": "[1]; fixed compound concentration 40 μM", "result": "≤ 25", "unit": "%"}, {"measurement": "IC50", "setting": "[1]", "result": "421.6 ± 0.94", "unit": "µM"}]}
{"compound": "O=S(=O)(NCCc1c[nH]cn1)c1ccc(F)cc1Cl", "note": "[I-f, N ^α-2-Chloro-4-fluorobenzenesulfonyl histamine]", "values": [{"measurement": "IC50", "setting": "[1]", "result": "244.2 ± 1.09", "unit": "µM"}]}
{"compound": "O=S(=O)(NCCc1c[nH]cn1)c1cc(F)c(F)c(F)c1", "note": "[I-g, N ^α-3,4,5-trifluorobenzenesulfonyl histamine]", "values": [{"measurement": "IC50", "setting": "[1]", "result": "71.4 ± 1.02", "unit": "µM"}]}
{"compound": "O=S(=O)(NCCc1c[nH]cn1)c1ccc(F)cc1C(F)(F)F", "note": "[I-h, N ^α-2-(trifluoromethyl)-4-fluorobenzenesulfonyl histamine]", "values": [{"measurement": "IC50", "setting": "[1]", "result": "72.7 ± 1.05", "unit": "µM"}]}
{"compound": "O=S(=O)(NCCc1c[nH]cn1)c1c(F)c(F)c(F)c(F)c1F", "note": "[I-i, N ^α-pentafluorobenzenesulfonyl histamine]", "values": [{"measurement": "IC50", "setting": "[1]", "result": "102 ± 1.05", "unit": "µM"}]}
{"compound": "COc1ccc(S(=O)(=O)NCCc2c[nH]cn2)cc1F", "note": "[I-j, N ^α-3-fluoro-4-methoxybenzenesulfonyl histamine]", "values": [{"measurement": "IC50", "setting": "[1]", "result": "95.5 ± 1.02", "unit": "µM"}]}
{"compound": "O=S(=O)(NCCc1cn(S(=O)(=O)c2ccccc2)cn1)c1ccccc1", "note": "[II-a, N ^α,N^τ-di-benzenesulfonyl histamine]", "values": [{"measurement": "IC50", "setting": "[2]; read-out: IC50 (β-Glc inhibition), reported value", "result": 250, "unit": "µM"}]}
{"compound": "OC[C@H]1NC[C@H](O)[C@@H](O)[C@H]1O", "note": "[galacto-DNJ]", "values": [{"measurement": "IC50", "setting": "[9]", "result": 90, "unit": "µM"}]}
{"compound": "NCCc1c[nH]cn1", "note": "[histamine]", "values": [{"measurement": "IC50", "setting": "[1]", "result": "> 1000", "unit": "µM"}, {"measurement": "Ki", "setting": "[3]; [10]", "result": 2100, "unit": "µM"}]}
{"compound": "c1c[nH]cn1", "note": "[imidazole]", "values": [{"measurement": "Ki", "setting": "[3]; [10]", "result": 530, "unit": "µM"}]}
